This note sets out measurements from ChEMBL document CHEMBL1201862, “PubChem BioAssay data set” (2004).

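Test compounds were applied to cells in 96-well plates for 48 hours at 5 doses. Abbreviation: GI50, concentration required for 50% inhibition of growth.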 Calls of active or inactive are those of the source. Rule as the data show it: active = GI50 up to about 1.1 µM and inactive = higher.

Test systems include ACHN; CCRF-CEM; COLO 205; EKVX; HOP-92; KM12; M14; MCF7; NCI-H522; OVCAR-4; OVCAR-8; PC-3; RXF 393; SF-268; SF-539; SNB-75; SR; T47D; U-251; UACC-62.
Common to all, as to test: inhibition of tumour cell growth, NCI panel, 48 h

Take `COC(=O)/C=C1/OC(c2ccccc2)=CC1=O`: the GI50 in the assay with ACHN was 13.5 µM (inactive); in the assay on CCRF-CEM, 6.65 µM (inactive); in the assay with COLO 205, 15.9 µM (inactive); in the assay with EKVX it was 17.9 µM (inactive); in the assay on HOP-92, 22.9 µM (inactive); in the assay with KM12 it was 16.7 µM (inactive). Moreover, the GI50 with M14 is 23.3 µM (inactive); with MCF7, 11.7 µM (inactive); in the assay on NCI-H522, 16.9 µM (inactive); in the assay on OVCAR-4, 16.4 µM (inactive); with OVCAR-8, 15 µM (inactive); in the assay with PC-3 it was 20.4 µM (inactive). Further, the GI50 in the assay on RXF 393 is 14.5 µM (inactive); in the assay on SF-268 it was 19.1 µM (inactive); in the assay with SF-539, 20.3 µM (inactive); with SNB-75 it was 15.5 µM (inactive); in the assay on SR, > 23.4 µM (inactive); in the assay with T47D, 20.9 µM (inactive). In addition, the GI50 with U-251 is 16.4 µM (inactive); in the assay with UACC-62 it was 18.6 µM (inactive).

Turning to `CCOC(=N)n1c(=O)n(C2=NCCN2)c2ccccc21`, the GI50 in the assay on ACHN, in the assay on CCRF-CEM, in the assay on COLO 205, in the assay with EKVX, in the assay with HOP-92 and in the assay on KM12 was > 100 µM (inactive) in each case. The GI50 in the assay with M14, with MCF7, in the assay on NCI-H522, with OVCAR-4, with OVCAR-8 and with PC-3 was > 100 µM (inactive) in each case. Besides, the GI50 was > 100 µM (inactive) in the assay with RXF 393; > 100 µM (inactive) with SF-268; > 100 µM (inactive) in the assay on SF-539; 31.2 µM (inactive) in the assay with SNB-75; > 100 µM (inactive) in the assay on SR; > 100 µM (inactive) in the assay on T47D. The GI50 in the assay on U-251 and with UACC-62 was > 100 µM (inactive) throughout.

With `CC1=C(C(=O)NC2CCCCC2)CC(C(=O)NC2CCCCC2)=C(C)N1`, the GI50 with ACHN was > 100 µM (inactive); in the assay with CCRF-CEM, > 100 µM (inactive); in the assay with COLO 205 it was > 100 µM (inactive); in the assay with EKVX it was > 100 µM (inactive); with HOP-92 it was 33 µM (inactive); with KM12, > 100 µM (inactive). In addition, the GI50 is > 100 µM (inactive) in the assay with M14; > 100 µM (inactive) in the assay with MCF7; > 100 µM (inactive) in the assay on NCI-H522; > 100 µM (inactive) in the assay on OVCAR-4; 77.4 µM (inactive) with PC-3; > 100 µM (inactive) in the assay with RXF 393. The GI50 with SF-268 was 39.9 µM (inactive); in the assay with SF-539 it was > 100 µM (inactive); in the assay on SNB-75, 13.7 µM (inactive); in the assay on SR, > 100 µM (inactive); with T47D it was 58.6 µM (inactive); in the assay with U-251 it was > 100 µM (inactive). Moreover, the GI50 in the assay on UACC-62 was > 100 µM (inactive).

Regarding `COC(=O)CCc1cc(O)c2c(c1)C(C(=O)OC)C(c1ccc(O)c(O)c1)O2` (configuration not stated), the GI50 in the assay with ACHN is 33.7 µM (inactive); in the assay on CCRF-CEM it was 3.21 µM (inactive); in the assay with COLO 205, 31.4 µM (inactive); in the assay with EKVX it was 34.4 µM (inactive); in the assay on HOP-92 it was 44 µM (inactive); with KM12 it was 3.88 µM (inactive). Besides, the GI50 in the assay on M14 was 13.9 µM (inactive); in the assay with MCF7 it was 4.79 µM (inactive); in the assay with NCI-H522, 12.6 µM (inactive); in the assay with OVCAR-4, > 58.7 µM (inactive); in the assay with OVCAR-8, 21.8 µM (inactive); in the assay with PC-3, 19.6 µM (inactive). The GI50 in the assay on RXF 393 is 18.7 µM (inactive); in the assay on SF-268, 16.3 µM (inactive); in the assay with SF-539, 9.64 µM (inactive); with SNB-75, 2.35 µM (inactive); in the assay on SR, 3.45 µM (inactive); in the assay with T47D, 6.37 µM (inactive). Besides, the values for the GI50 in the assay on U-251 and in the assay on UACC-62 were 11.8 µM (inactive) and 8.15 µM (inactive), respectively.

As to `COc1cc(/N=C\N(C)C)c2ncccc2c1`, the GI50 in the assay on ACHN was > 100 µM (inactive); in the assay with CCRF-CEM it was 28 µM (inactive); with COLO 205, > 100 µM (inactive); with EKVX, > 100 µM (inactive); in the assay on HOP-92, 32.1 µM (inactive); in the assay on M14, 48.8 µM (inactive). In addition, the GI50 with MCF7 is 48.5 µM (inactive); in the assay on NCI-H522 it was 68.9 µM (inactive); in the assay on OVCAR-4, > 100 µM (inactive); with OVCAR-8, 51.8 µM (inactive); in the assay on PC-3, 90.6 µM (inactive); with RXF 393 it was 75.3 µM (inactive). Further, the GI50 in the assay on SF-268 was 66.1 µM (inactive); with SF-539 it was 33.5 µM (inactive); with SNB-75, 52.8 µM (inactive); in the assay on SR, 1.62 µM (inactive); in the assay on T47D, 78 µM (inactive); with U-251 it was 79.3 µM (inactive). Moreover, in the assay on UACC-62, the GI50 was 54.1 µM (inactive).

On to `CC(C)=CCc1c(O)c(CC=C(C)C)c2oc(-c3ccc(O)cc3O)c(CC=C(C)C)c(=O)c2c1O`, for which the GI50 was 7.62 µM (inactive) with ACHN; 2.1 µM (inactive) in the assay with CCRF-CEM; 27.1 µM (inactive) in the assay on COLO 205; 12.4 µM (inactive) in the assay on EKVX; 8.26 µM (inactive) in the assay with HOP-92; 5.57 µM (inactive) in the assay with KM12. Besides, the GI50 in the assay on M14 is 8.83 µM (inactive); in the assay on MCF7 it was 3.98 µM (inactive); in the assay with NCI-H522, 7.31 µM (inactive); in the assay on OVCAR-4, 5.51 µM (inactive); with OVCAR-8, 4.88 µM (inactive); in the assay on PC-3, 6.46 µM (inactive). The GI50 is 4.99 µM (inactive) in the assay with RXF 393; 9.16 µM (inactive) with SF-268; 16.3 µM (inactive) in the assay on SF-539; 10.6 µM (inactive) with SNB-75; 2.34 µM (inactive) in the assay on SR; 3.97 µM (inactive) in the assay with T47D. Further, the GI50 is 9.12 µM (inactive) in the assay on U-251 and 7.14 µM (inactive) in the assay with UACC-62.

As to `CC1=NN(C(=O)CC(=O)Nc2cccc(C)c2)C(=O)C1/N=N/c1ccc(S(=O)(=O)CCOS(=O)(=O)O)cc1` (configuration not stated), the GI50 in the assay on ACHN was 4.72 µM (inactive); in the assay with CCRF-CEM it was 0.422 µM (active); in the assay on COLO 205, 2.45 µM (inactive); with EKVX, 32.2 µM (inactive); in the assay on HOP-92 it was 2.25 µM (inactive); in the assay with KM12 it was 2.51 µM (inactive). Also, the GI50 in the assay on M14 was 0.484 µM (active); in the assay on MCF7, 0.746 µM (active); in the assay with NCI-H522, 0.291 µM (active); with OVCAR-4, 9.42 µM (inactive); with OVCAR-8, 0.486 µM (active); in the assay with PC-3, 0.359 µM (active). Also, the GI50 in the assay with RXF 393 was 1.62 µM (inactive); with SF-268, 5.57 µM (inactive); with SF-539 it was 2 µM (inactive); in the assay with SNB-75, 0.805 µM (active); with SR, 0.49 µM (active); with T47D, > 34.5 µM (inactive). The GI50 in the assay with U-251 is 3.32 µM (inactive); with UACC-62 it was 1.81 µM (inactive).

On to `O=C(CCCCCCCCC(=O)N1C(=O)CC(=O)N(c2ccc(Cl)cc2)C1=S)N1C(=O)CC(=O)N(c2ccc(Cl)cc2)C1=S`, for which the GI50 is 35.4 µM (inactive) in the assay with ACHN; 30.9 µM (inactive) in the assay with CCRF-CEM; 32.9 µM (inactive) in the assay with COLO 205; 47.4 µM (inactive) with EKVX; > 100 µM (inactive) in the assay with HOP-92; 27.4 µM (inactive) in the assay on KM12. The GI50 in the assay with M14 is 38.5 µM (inactive); in the assay with MCF7, 37.8 µM (inactive); in the assay with NCI-H522 it was 29 µM (inactive); with OVCAR-4, 41.6 µM (inactive); with OVCAR-8, 63.5 µM (inactive); with PC-3 it was 57.1 µM (inactive). The GI50 in the assay with RXF 393 is > 100 µM (inactive); with SF-268, > 100 µM (inactive); in the assay with SF-539 it was > 100 µM (inactive); with SNB-75 it was > 100 µM (inactive); with SR it was 8.93 µM (inactive); in the assay on T47D it was 33.3 µM (inactive). In addition, the GI50 with U-251 is > 100 µM (inactive); in the assay with UACC-62, 15.5 µM (inactive).

With `CCCC(=O)Oc1c2ccsc2c(OC(=O)CCC)c2ccsc12`, the GI50 in the assay with ACHN is 2.23 µM (inactive); in the assay with CCRF-CEM, 1.54 µM (inactive); with COLO 205, 10.9 µM (inactive); in the assay with EKVX, 2.27 µM (inactive); in the assay with HOP-92, 1.1 µM (active); in the assay on KM12, 7.64 µM (inactive). For the same molecule, the GI50 in the assay with M14 is 1.57 µM (inactive); in the assay on MCF7, 2.23 µM (inactive); with NCI-H522, 2.26 µM (inactive); with OVCAR-4 it was 2.94 µM (inactive); with OVCAR-8 it was 0.407 µM (active); with PC-3 it was 0.836 µM (active). For the same molecule, the GI50 in the assay with RXF 393 is 3.05 µM (inactive); with SF-268, 3.13 µM (inactive); in the assay on SF-539, 0.982 µM (active); in the assay with SNB-75 it was 1.83 µM (inactive); in the assay on SR it was 0.444 µM (active); in the assay with T47D it was 6.37 µM (inactive). In addition, the results for the GI50 with U-251 and in the assay with UACC-62 were 1.36 µM (inactive) and 1.14 µM (inactive), respectively.

Consider `O=c1c2ccccc2n2n1Cc1ccccc1C2`, for which the GI50 with ACHN is > 100 µM (inactive); with CCRF-CEM, > 100 µM (inactive); with COLO 205 it was > 100 µM (inactive); with EKVX it was 35.6 µM (inactive); with HOP-92 it was > 100 µM (inactive); in the assay with KM12, > 100 µM (inactive). The GI50 in the assay on MCF7, in the assay on NCI-H522, in the assay with OVCAR-4, in the assay on OVCAR-8, in the assay on PC-3 and in the assay on RXF 393 was > 100 µM (inactive) in each case. Further, the GI50 with SF-268 is > 100 µM (inactive); in the assay with SF-539 it was > 100 µM (inactive); in the assay with SNB-75 it was 58.3 µM (inactive); in the assay on SR, > 100 µM (inactive); in the assay on T47D, > 100 µM (inactive); with U-251, > 100 µM (inactive). Moreover, the GI50 with UACC-62 is > 100 µM (inactive).
